Assay [1] has as its target T1, HCV NS3/4A protease D168A variant (Hepatitis C virus genotype 1a, UniProt P27958, C1185S/D1194A).
T1 construct: His-tag (cleaved yes); made in house; host or cells: Escherichia coli BL21(DE3), PET28a vector
As to the kind of experiment: biochemical. The format is biochemical. The procedure: (§1) The HCV GT1a NS3/4A protease gene described in the Bristol Myers Squibb patent was synthesized by GenScript and cloned into a PET28a expression vector. Cys159 was mutated to a serine residue to prevent disulfide bond formation and facilitate crystallization. The D168A gene was engineered using the site-directed mutagenesis protocol from Stratagene. Protein expression and purification were carried out as previously described.
(§2) Km constants for GT1 and D168A protease were previously determined. […] Inner filter effect corrections were applied to the initial velocities (Vo) at each substrate concentration. Vo versus substrate concentration graphs were globally fit to the Michaelis-Menten equation to obtain the Km value.
(§3) For each assay, 2 nM of NS3/4A protease (GT1a and D168A) was pre-incubated at room temperature for 1 h with increasing concentration of inhibitors in assay buffer (50 mM Tris, 5% glycerol, 10 mM DTT, 0.6 mM LDAO, and 4% dimethyl sulfoxide, pH 7.5). Inhibition assays were performed in non-binding surface 96-well black half-area plates (Corning) in a reaction volume of 60 μL. […] Three independent data sets were collected for each inhibitor with each protease construct.

Assay [2] concerns the target T2, wild-type HCV NS3/4A protease (GT1a) (Hepatitis C virus genotype 1a, UniProt P27958, C1185S).
T2 construct: His-tag (cleaved yes); made in house; host or cells: Escherichia coli BL21(DE3), PET28a vector
In words: biochemical. It is filed as biochemical. The procedure: as §1, §2, §3

T2 sequence (P27958 1027-1208 C1185S): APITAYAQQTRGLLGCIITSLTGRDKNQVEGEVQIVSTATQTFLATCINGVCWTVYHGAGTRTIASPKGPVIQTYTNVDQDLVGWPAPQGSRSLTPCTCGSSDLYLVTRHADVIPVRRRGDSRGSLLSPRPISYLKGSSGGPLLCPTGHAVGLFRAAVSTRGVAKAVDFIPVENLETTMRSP
T1 sequence (P27958 1027-1208 C1185S/D1194A): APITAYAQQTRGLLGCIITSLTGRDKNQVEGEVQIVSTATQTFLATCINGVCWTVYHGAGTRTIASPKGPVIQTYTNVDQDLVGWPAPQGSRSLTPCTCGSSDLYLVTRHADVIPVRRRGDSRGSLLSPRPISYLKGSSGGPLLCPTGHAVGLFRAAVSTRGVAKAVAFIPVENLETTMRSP

As to `COc1ccc2nc(C)c(O[C@@H]3C[C@H]4C(=O)N[C@]5(C(=O)NS(=O)(=O)C6(C)CC6)C[C@H]5/C=C\CCCCC[C@H](NC(=O)OC(C)(C)C(F)(F)F)C(=O)N4C3)nc2c1` [AJ-71, 1,1,1-Trifluoro-2-methylpropan-2-yl ((2R,6S,13aS,14aR,16aS,Z)-2-((7-methoxy-3-methylquinoxalin-2-yl)oxy)-14a-(((1-methylcyclopropyl)sulfonyl)carbamoyl)-5,16-dioxo-1,2,3,5,6,7,8,9,10,11,13a,14,14a,15,16,16a-hexadecahydrocyclopropa[e]pyrrolo[1,2-a][1,4]diazacyclopentadecin-6-yl)carbamate], the inhibition constant (Ki) (in general, the dissociation constant of the complex between target and ligand, obtained from inhibition or displacement) in assay [1] is 39 ± 2.9 nM; in assay [2] it was 2.56 ± 0.44 nM.

As to `COc1ccc2nc(C(F)(F)F)c(O[C@@H]3C[C@H]4C(=O)N[C@]5(C(=O)NS(=O)(=O)C6(C)CC6)C[C@H]5/C=C\CCCCC[C@H](NC(=O)OC5CCC5)C(=O)N4C3)nc2c1` [NR01-95, Cyclobutyl ((2R,6S,13aS,14aR,16aS,Z)-2-((7-methoxy-3-(trifluoromethyl)quinoxalin-2-yl)oxy)-14a-(((1-methylcyclopropyl)sulfonyl)carbamoyl)-5,16-dioxo-1,2,3,5,6,7,8,9,10,11,13a,14,14a,15,16,16a-hexadecahydrocyclopropa[e]pyrrolo[1,2-a][1,4]diazacyclopentadecin-6-yl)carbamate], the inhibition constant Ki worked out at 29.5 ± 1.8 nM in assay [1] and 8.53 ± 0.87 nM in assay [2].

Take `COc1ccc2nc(C)c(O[C@@H]3C[C@H]4C(=O)N[C@]5(C(=O)NS(=O)(=O)C6(C)CC6)C[C@H]5/C=C\CCCCC[C@H](NC(=O)O[C@@H](C)C(C)C)C(=O)N4C3)nc2c1` [NR01-99, (S)-3-Methylbutan-2-yl ((2R,6S,13aS,14aR,16aS,Z)-2-((7-methoxy-3-methylquinoxalin-2-yl)oxy)-14a-(((1-methylcyclopropyl)sulfonyl)carbamoyl)-5,16-dioxo-1,2,3,5,6,7,8,9,10,11,13a,14,14a,15,16,16a-hexadecahydrocyclopropa[e]pyrrolo[1,2-a][1,4]diazacyclopentadecin-6-yl)carbamate]: the Ki in assay [1] came to 21.7 ± 2.3 nM; in assay [2], 1.91 ± 0.3 nM.

Turning to `COc1ccc2nc(C)c(O[C@@H]3C[C@H]4C(=O)N[C@]5(C(=O)NS(=O)(=O)C6(C)CC6)C[C@H]5/C=C\CCCCC[C@H](NC(=O)OCC5(C)CC5)C(=O)N4C3)nc2c1` [NR01-115, (1-Methylcyclopropyl)methyl ((2R,6S,13aS,14aR,16aS,Z)-2-((7-methoxy-3-methylquinoxalin-2-yl)oxy)-14a-(((1-methylcyclopropyl)sulfonyl)carbamoyl)-5,16-dioxo-1,2,3,5,6,7,8,9,10,11,13a,14,14a,15,16,16a-hexadecahydrocyclopropa[e]pyrrolo[1,2-a][1,4]diazacyclopentadecin-6-yl)carbamate], the values for the Ki in assay [1] and in assay [2] were 21.6 ± 1.7 nM and 0.65 ± 0.2 nM, respectively.

Turning to `COc1ccc2nc(C(F)(F)F)c(O[C@@H]3C[C@H]4C(=O)N[C@]5(C(=O)NS(=O)(=O)C6(C)CC6)C[C@H]5/C=C\CCCCC[C@H](NC(=O)OCC5(C)CC5)C(=O)N4C3)nc2c1` [NR01-117, (1-Methylcyclopropyl)methyl ((2R,6S,13aS,14aR,16aS,Z)-2-((7-methoxy-3-(trifluoromethyl)quinoxalin-2-yl)oxy)-14a-(((1-methylcyclopropyl)sulfonyl)carbamoyl)-5,16-dioxo-1,2,3,5,6,7,8,9,10,11,13a,14,14a,15,16,16a-hexadecahydrocyclopropa[e]pyrrolo[1,2-a][1,4]diazacyclopentadecin-6-yl)carbamate], the figures for the Ki in assay [1] and in assay [2] were 18.6 ± 2 nM and 2.89 ± 0.19 nM, respectively.

Regarding `COc1ccc2nc(C)c(O[C@@H]3C[C@H]4C(=O)N[C@]5(C(=O)NS(=O)(=O)C6(C)CC6)C[C@H]5/C=C\CCCCC[C@H](NC(=O)O[C@H](C)C(C)C)C(=O)N4C3)nc2c1` [NR01-119, (R)-3-Methylbutan-2-yl ((2R,6S,13aS,14aR,16aS,Z)-2-((7-methoxy-3-methylquinoxalin-2-yl)oxy)-14a-(((1-methylcyclopropyl)sulfonyl)carbamoyl)-5,16-dioxo-1,2,3,5,6,7,8,9,10,11,13a,14,14a,15,16,16a-hexadecahydrocyclopropa[e]pyrrolo[1,2-a][1,4]diazacyclopentadecin-6-yl)carbamate], the inhibitory constant (Ki) in assay [1] was determined as 23.9 ± 3.5 nM; in assay [2], 1.52 ± 0.02 nM.

Regarding `COc1ccc2nc(C(F)(F)F)c(O[C@@H]3C[C@H]4C(=O)N[C@]5(C(=O)NS(=O)(=O)C6(C)CC6)C[C@H]5/C=C\CCCCC[C@H](NC(=O)O[C@H](C)C(C)C)C(=O)N4C3)nc2c1` [NR01-121, (R)-3-Methylbutan-2-yl ((2R,6S,13aS,14aR,16aS,Z)-2-((7-methoxy-3-(trifluoromethyl)quinoxalin-2-yl)oxy)-14a-(((1-methylcyclopropyl)sulfonyl)carbamoyl)-5,16-dioxo-1,2,3,5,6,7,8,9,10,11,13a,14,14a,15,16,16a-hexadecahydrocyclopropa[e]pyrrolo[1,2-a][1,4]diazacyclopentadecin-6-yl)carbamate], the values for the Ki in assay [1] and in assay [2] were 10.4 ± 0.9 nM and 2.96 ± 0.22 nM, respectively.

Turning to `COc1ccc2nc(C)c(O[C@@H]3C[C@H]4C(=O)N[C@]5(C(=O)NS(=O)(=O)C6(C)CC6)C[C@H]5/C=C\CCCCC[C@H](NC(=O)OC5CCC5)C(=O)N4C3)nc2c1` [NR01-127, Cyclobutyl ((2R,6S,13aS,14aR,16aS,Z)-2-((7-methoxy-3-methylquinoxalin-2-yl)oxy)-14a-(((1-methylcyclopropyl)sulfonyl)carbamoyl)-5,16-dioxo-1,2,3,5,6,7,8,9,10,11,13a,14,14a,15,16,16a-hexadecahydrocyclopropa[e]pyrrolo[1,2-a][1,4]diazacyclopentadecin-6-yl)carbamate], the figures for the inhibition constant (Ki) in assay [1] and in assay [2] were 52.4 ± 9 nM and 0.3 ± 0.2 nM, respectively.

`COc1ccc2nc(C(F)(F)F)c(O[C@@H]3C[C@H]4C(=O)N[C@]5(C(=O)NS(=O)(=O)C6(C)CC6)C[C@H]5/C=C\CCCCC[C@H](NC(=O)OC(C)(C)C(F)(F)F)C(=O)N4C3)nc2c1` [NR01-129, 1,1,1-Trifluoro-2-methylpropan-2-yl ((2R,6S,13aS,14aR,16aS,Z)-2-((7-methoxy-3-(trifluoromethyl)quinoxalin-2-yl)oxy)-14a-(((1-methylcyclopropyl)sulfonyl)carbamoyl)-5,16-dioxo-1,2,3,5,6,7,8,9,10,11,13a,14,14a,15,16,16a-hexadecahydrocyclopropa[e]pyrrolo[1,2-a][1,4]diazacyclopentadecin-6-yl)carbamate]: the Ki in assay [1] amounted to 15.5 ± 1.8 nM; in assay [2], 3.6 ± 0.3 nM.

As for `COc1ccc2nc(C(F)(F)F)c(O[C@@H]3C[C@H]4C(=O)N[C@]5(C(=O)NS(=O)(=O)C6(C)CC6)C[C@H]5/C=C\CCCCC[C@H](NC(=O)O[C@H](C)C(F)(F)F)C(=O)N4C3)nc2c1` [NR01-147, (R)-1,1,1-Trifluoropropan-2-yl ((2R,6S,13aS,14aR,16aS,Z)-2-((7-methoxy-3-(trifluoromethyl)quinoxalin-2-yl)oxy)-14a-(((1-methylcyclopropyl)sulfonyl)carbamoyl)-5,16-dioxo-1,2,3,5,6,7,8,9,10,11,13a,14,14a,15,16,16a-hexadecahydrocyclopropa[e]pyrrolo[1,2-a][1,4]diazacyclopentadecin-6-yl)carbamate], the figures for the Ki in assay [1] and in assay [2] were 17 ± 2.4 nM and 2.8 ± 0.7 nM, respectively.

Consider `COc1ccc2nc(C)c(O[C@@H]3C[C@H]4C(=O)N[C@]5(C(=O)NS(=O)(=O)C6(C)CC6)C[C@H]5/C=C\CCCCC[C@H](NC(=O)OC5CC(F)(F)C5)C(=O)N4C3)nc2c1` [NR01-149, 3,3-Difluorocyclobutyl ((2R,6S,13aS,14aR,16aS,Z)-2-((7-methoxy-3-methylquinoxalin-2-yl)oxy)-14a-(((1-methylcyclopropyl)sulfonyl)carbamoyl)-5,16-dioxo-1,2,3,5,6,7,8,9,10,11,13a,14,14a,15,16,16a-hexadecahydrocyclopropa[e]pyrrolo[1,2-a][1,4]diazacyclopentadecin-6-yl)carbamate], for which the Ki was found to be 26 ± 1 nM in assay [1] and 0.62 ± 0.3 nM in assay [2].

For the compound `COc1ccc2nc(C(F)(F)F)c(O[C@@H]3C[C@H]4C(=O)N[C@]5(C(=O)NS(=O)(=O)C6(C)CC6)C[C@H]5/C=C\CCCCC[C@H](NC(=O)OC5CC(F)(F)C5)C(=O)N4C3)nc2c1` [NR01-151, 3,3-Difluorocyclobutyl ((2R,6S,13aS,14aR,16aS,Z)-2-((7-methoxy-3-(trifluoromethyl)quinoxalin-2-yl)oxy)-14a-(((1-methylcyclopropyl)sulfonyl)carbamoyl)-5,16-dioxo-1,2,3,5,6,7,8,9,10,11,13a,14,14a,15,16,16a-hexadecahydrocyclopropa[e]pyrrolo[1,2-a][1,4]diazacyclopentadecin-6-yl)carbamate], the Ki in assay [1] was found to be 43.2 ± 6.3 nM; in assay [2] it was 10.9 ± 1.1 nM.

For the compound `COc1ccc2nc(C(F)(F)F)c(O[C@@H]3C[C@H]4C(=O)N[C@]5(C(=O)NS(=O)(=O)C6(C)CC6)C[C@H]5/C=C\CCCCC[C@H](NC(=O)O[C@@H]5CCC[C@H]5F)C(=O)N4C3)nc2c1` [NR02-09, (1R,2R)-2-Fluorocyclopentyl ((2R,6S,13aS,14aR,16aS,Z)-2-((7-methoxy-3-(trifluoromethyl)quinoxalin-2-yl)oxy)-14a-(((1-methylcyclopropyl)sulfonyl)carbamoyl)-5,16-dioxo-1,2,3,5,6,7,8,9,10,11,13a,14,14a,15,16,16a-hexadecahydrocyclopropa[e]pyrrolo[1,2-a][1,4]diazacyclopentadecin-6-yl)carbamate], the figures for the Ki in assay [1] and in assay [2] were 18.9 ± 3.6 nM and 8 ± 1.8 nM, respectively.

These data come from patent US12441762B2, “Hepatitis c virus NS3/4A protease inhibitors” (priority 2019, dated 2025).
